Where “and” joins values, the source holds several entries; their conditions need not be identical. Equal entries are not always repeated.
Columns and labels:
[1] = Stability of ^64Cu-labeled tetrazines in PBS (pH 7.4) at 37° C.; assay type: physicochemical; details: PBS pH 7.4, 37° C.
Method: (§1) Next, the aqueous and serum stabilities were determined via incubation at 37° C. (Tables 2-3). […] For example, after a 4 h incubation, 77.8±3.5% and 81.2±3.7% of ^64Cu-Tz-PEG7-NOTA and ^64Cu-Tz-SarAr, respectively, remained intact. Importantly, the release of ^64Cu^2+ from the chelators was not observed in any of the trials. Despite the rates of decomposition, the speed of the IEDDA reaction was faster than short blood half-lives of these small molecules; therefore, the radioligands remained functional in vivo.
(§2) ^64Cu-Tz-PEG7-NOTA and ^64Cu-Tz-SarAr (1000 μCi) were incubated on an agitating thermomixer (300 rpm) at 37° C. in 500 μL of either PBS (pH 7.4) or human serum. At each prescribed time-point, 100 μL of the solution was removed and placed into a 1.7 mL microcentrifuge tube. For the PBS samples, the compound was injected directly onto the HPLC and analyzed using a gradient of 5:95 CH3CN:H2O (both with 0.1% TFA) to 95:5 CH3CN:H2O over 15 min. For the serum samples, 100 μL cold CH3CN was added to the serum, and the resultant mixture was vortexed and centrifuged at 10,000 rpm for 10 min. After this, the clear supernatant was removed, moved to a new 1.7 mL microcentrifuge tube, and centrifuged again at 10,000 rpm for 10 min. The clear supernatant from this second spin was then injected into the HPLC and analyzed using a gradient of 5:95 CH3CN:H2O (both with 0.1% TFA) to 95:5 CH3CN:H2O over 15 min. The residual protein from the centrifuge spins was checked for radioactivity, and only minimal residual activity remained (less than 1% of the starting ^64Cu for each ^64Cu-Tz-PEG7-NOTA and ^64Cu-Tz-SarAr). The fraction of intact ^64Cu-Tz-PEG7-NOTA or ^64Cu-Tz-SarAr was determined by integrating the peak corresponding to the compound (tR=9.7 and 8.7 minutes, respectively) and dividing by the integral over the whole HPLC run. Both the injection loop and column were monitored to detect the presence of residual activity. All experiments were performed in triplicate.

[2] = Stability of ^64Cu-labeled tetrazines in human serum at 37° C.; assay type: in vitro ADME
Method: as §1, §2

[3] = PET imaging with ^64Cu-labeled tetrazine radioligands in healthy mice; assay type: in vivo, athymic nude mice
Method: All PET imaging experiments were performed on an Inveon PET/CT scanner (Siemens Healthcare Global). Healthy female athymic nude mice (n=4 per radioligand) were administered ^64Cu-Tz-NOTA, ^64Cu-Tz-PEG7-NOTA, or ^64Cu-Tz-SarAr (300-350 μCi in 200 μL 0.9% sterile saline) via intravenous tail vein injection (t=0). Approximately 5 minutes prior to the PET images, mice were anesthetized by inhalation of 2% isoflurane (Baxter Healthcare, Deerfield, Ill.)/oxygen gas mixture and placed on the scanner bed; anesthesia was maintained using 1% isoflurane/gas mixture. Static scans were recorded at various time points after injection with a minimum of 30 million coincident events (10-30 min total scan time). An energy window of 350-700 keV and a coincidence timing window of 6 ns were used. Data were sorted into 2-dimensional histograms by Fourier re-binning, and the images were reconstructed using a two-dimensional ordered subset expectation maximization (2DOSEM) algorithm (16 subsets, 4 iterations) into a 128×128×159 (0.78×0.78×0.80 mm) matrix. The image data was normalized to correct for non-uniformity of response of the PET, dead-time count losses, positron branching ratio, and physical decay to the time of injection but no attenuation, scatter, or partial-volume averaging correction was applied. Activity concentrations (percentage of dose per gram of tissue [% ID/g]) and maximum intensity projections were determined by conversion of the counting rates from the reconstructed images. All of the resulting PET images were analyzed using ASIPro VM™ software.

SMILES	% Intact (PBS) ([1]; 2 h)	% Intact (Serum) ([2]; 2 h)	excretion pathway (PET imaging) [3]	% Intact (PBS) ([1]; 4 h) [%]	% Intact (PBS) ([1]; 8 h) [%]	% Intact (Serum) ([2]; 4 h) [%]	% Intact (Serum) ([2]; 8 h) [%]
O=C([O-])CN1CCN(CC(=O)[O-])CC(Cc2ccc(NC(=O)CCCC(=O)NCc3ccc(-c4nncnn4)cc3)cc2)N(CC(=O)[O-])CC1.[64Cu+2] (centres unmarked) [^64Cu-Tz-NOTA]	91.6 +/− 1.9%	85.4 +/− 6.6%	eliminated somewhat sluggishly through the gastrointestinal pathway				
O=C(O)CN1CCN(CC(=O)O)CC(Cc2ccc(NC(=S)NCCOCCOCCOCCOCCOCCOCCOCCNC(=O)CCCC(=O)NCc3ccc(-c4nncnn4)cc3)cc2)N(CC(=O)O)CC1.[64Cu] (centres unmarked) [^64Cu-Tz-PEG7-NOTA]	87.0±1.3% and 87.0 +/− 1.3%	84.7 +/− 4.8% and 84.7 ± 4.8%	excretion through both the intestines and the kidneys	83.2±4.6	76.2 ± 2.6	77.8±3.5	64.0 ± 6.5
NC12CNCCNCC(NCc3ccc(CNC(=O)CCCC(=O)NCc4ccc(-c5nncnn5)cc4)cc3)(CNCCNC1)CNCCNC2.[64Cu+2] [^64Cu-Tz-SarAr]	94.7±0.6% and 94.7 +/− 0.6%	92.0 +/− 2.1% and 92.0 ± 2.1%	cleared quickly and cleanly through the urinary tract	93.3±0.5	89.7 ± 2.3	81.2±3.7	67.7 ± 4.3

Reference: US11135320B2, “Radioligands for pretargeted pet imaging and methods of their therapeutic use” (priority 2015, dated 2021)
